Measured values from article PMC7932537, “Quantitative profiling of protease specificity” (PLoS Computational Biology, 2021).

Key:
[1] = biological target: T1, MMP-2 (Homo sapiens, UniProt P08253); experiment: K(obs) of individual phage substrates (set of 1369); assay type: biochemical; details: MMP2
T1 sequence (P08253 110-660): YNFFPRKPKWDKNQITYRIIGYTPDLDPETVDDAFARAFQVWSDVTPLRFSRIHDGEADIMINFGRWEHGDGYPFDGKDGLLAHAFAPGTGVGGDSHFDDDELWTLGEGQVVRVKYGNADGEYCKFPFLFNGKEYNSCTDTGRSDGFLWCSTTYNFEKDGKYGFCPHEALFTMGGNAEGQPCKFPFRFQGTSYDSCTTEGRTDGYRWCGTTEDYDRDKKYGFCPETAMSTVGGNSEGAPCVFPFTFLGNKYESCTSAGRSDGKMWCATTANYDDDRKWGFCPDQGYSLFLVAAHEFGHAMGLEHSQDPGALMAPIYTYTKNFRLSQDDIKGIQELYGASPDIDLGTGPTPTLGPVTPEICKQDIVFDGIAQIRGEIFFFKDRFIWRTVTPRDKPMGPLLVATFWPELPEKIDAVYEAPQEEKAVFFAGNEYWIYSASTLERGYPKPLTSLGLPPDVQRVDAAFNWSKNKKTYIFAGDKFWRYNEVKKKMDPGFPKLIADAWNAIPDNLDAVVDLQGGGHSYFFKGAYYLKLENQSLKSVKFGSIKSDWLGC

[2] = biological target: MMP-9 (Homo sapiens, UniProt P14780); experiment: as above; assay type: biochemical; details: MMP9, individual phage substrates, set of 1369 peptides
MMP-9, sequence (P14780 94-707): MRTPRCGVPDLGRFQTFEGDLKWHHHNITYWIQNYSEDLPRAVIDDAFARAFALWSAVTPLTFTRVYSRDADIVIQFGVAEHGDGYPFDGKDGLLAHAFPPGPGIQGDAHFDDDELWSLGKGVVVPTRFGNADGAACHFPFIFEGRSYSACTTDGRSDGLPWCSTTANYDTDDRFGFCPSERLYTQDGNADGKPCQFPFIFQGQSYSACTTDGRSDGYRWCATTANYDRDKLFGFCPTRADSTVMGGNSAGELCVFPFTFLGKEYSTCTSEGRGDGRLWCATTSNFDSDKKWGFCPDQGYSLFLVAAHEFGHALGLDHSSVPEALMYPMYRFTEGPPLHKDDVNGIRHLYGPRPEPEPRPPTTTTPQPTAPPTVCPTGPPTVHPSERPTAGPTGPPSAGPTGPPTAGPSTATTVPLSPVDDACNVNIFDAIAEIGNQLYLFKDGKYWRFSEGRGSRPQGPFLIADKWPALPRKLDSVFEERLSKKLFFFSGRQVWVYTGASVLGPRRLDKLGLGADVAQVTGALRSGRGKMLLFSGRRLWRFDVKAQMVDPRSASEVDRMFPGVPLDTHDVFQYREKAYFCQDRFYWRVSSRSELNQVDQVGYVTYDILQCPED

[3] = individual phage substrates, set of 1369 peptides, cleavage position marked by '-' in the sequence
[4] = '-' marks the cleavage position (P1-P1')
[5] = individual phage substrate from the set of 1369 peptides, cleavage position marked by the dash in the sequence
[6] = dash in sequence marks cleavage position

| Substance | Kobs [1, 3] | Kobs [2, 4] | Kobs [1, 5] | Kobs [2, 6] |
| --- | --- | --- | --- | --- |
| GGSGF-LVRSL | 9740.44 M⁻¹ s⁻¹ | 10866.7 M⁻¹ s⁻¹ | – | – |
| RKALN-LTASG | 4613.14 M⁻¹ s⁻¹ | 5667.28 M⁻¹ s⁻¹ | – | – |
| GKPNR-LVTAS | – | – | 2761.81 M⁻¹ s⁻¹ | 1239.69 M⁻¹ s⁻¹ |
| SGVYR-LELTA | – | – | 113.394 M⁻¹ s⁻¹ | 0 M⁻¹ s⁻¹ |
| LGWSS-LTASG | – | – | 3344.37 M⁻¹ s⁻¹ | 0 M⁻¹ s⁻¹ |
| FTPLN-MTASG | 12792.1 M⁻¹ s⁻¹ | 10866.7 M⁻¹ s⁻¹ | – | – |
| KAPLK-LTASG | – | – | 12792.1 M⁻¹ s⁻¹ | 12792.1 M⁻¹ s⁻¹ |
| SGMSS-LKFTA | 323.705 M⁻¹ s⁻¹ | 0 M⁻¹ s⁻¹ | – | – |
| SRVRN-LTASG | 8321.48 M⁻¹ s⁻¹ | 4470.66 M⁻¹ s⁻¹ | – | – |
| GGSGR-LTLKW | – | – | 0 M⁻¹ s⁻¹ | 0 M⁻¹ s⁻¹ |
| GFAIS-MVTAS | 113.394 M⁻¹ s⁻¹ | 84.609 M⁻¹ s⁻¹ | – | – |
| WVANM-ITASG | 7386.83 M⁻¹ s⁻¹ | 1513.13 M⁻¹ s⁻¹ | – | – |
| GGSGS-LRLFE | 0 M⁻¹ s⁻¹ | 0 M⁻¹ s⁻¹ | – | – |
| DILRH-LTASG | 5889.62 M⁻¹ s⁻¹ | 2409.72 M⁻¹ s⁻¹ | – | – |
| HRPFG-LTASG | 12792.1 M⁻¹ s⁻¹ | 12792.1 M⁻¹ s⁻¹ | – | – |
| SGSFN-LTMTA | 0 M⁻¹ s⁻¹ | 418.952 M⁻¹ s⁻¹ | – | – |
| KSPAY-LTASG | – | – | 10866.7 M⁻¹ s⁻¹ | 10866.7 M⁻¹ s⁻¹ |
| TGSWP-LTASG | – | – | 0 M⁻¹ s⁻¹ | 113.394 M⁻¹ s⁻¹ |
| GVSAR-LVTAS | – | – | 142.481 M⁻¹ s⁻¹ | 0 M⁻¹ s⁻¹ |
| GQVFR-LITAS | 0 M⁻¹ s⁻¹ | 323.705 M⁻¹ s⁻¹ | – | – |
| SSYAH-LTASG | 5269.78 M⁻¹ s⁻¹ | 0 M⁻¹ s⁻¹ | – | – |
| GGSGF-LVAKA | – | – | 1327.88 M⁻¹ s⁻¹ | 0 M⁻¹ s⁻¹ |
| GGSGQ-LRREY | – | – | 355.093 M⁻¹ s⁻¹ | 355.093 M⁻¹ s⁻¹ |
| YAPGS-MTASG | 5269.78 M⁻¹ s⁻¹ | 3741.87 M⁻¹ s⁻¹ | – | – |
| YQTMA-LTASG | 551.253 M⁻¹ s⁻¹ | 585.336 M⁻¹ s⁻¹ | – | – |
| SAVRA-LTASG | 9740.44 M⁻¹ s⁻¹ | 7815.03 M⁻¹ s⁻¹ | – | – |

| Substance | Kobs [1, 3] | Kobs [2, 4] | Kobs [1, 5] | Kobs [2, 6] |
| --- | --- | --- | --- | --- |
| AMAHS-LTASG | – | – | 7015.91 M⁻¹ s⁻¹ | 2996.69 M⁻¹ s⁻¹ |
| GGSGA-LTMPL | 0 M⁻¹ s⁻¹ | 171.876 M⁻¹ s⁻¹ | – | – |
| GALDW-MSTAS | 0 M⁻¹ s⁻¹ | 0 M⁻¹ s⁻¹ | – | – |
| TVSLP-LTASG | – | – | 2097.28 M⁻¹ s⁻¹ | 355.093 M⁻¹ s⁻¹ |
| CLLAS-LTASG | – | – | 6396.07 M⁻¹ s⁻¹ | 0 M⁻¹ s⁻¹ |
| GKTWA-LTASG | 323.705 M⁻¹ s⁻¹ | 912.511 M⁻¹ s⁻¹ | – | – |
| SGPLS-LRSTA | 12792.1 M⁻¹ s⁻¹ | 12792.1 M⁻¹ s⁻¹ | – | – |
| SGIYG-LRNTA | 1981.53 M⁻¹ s⁻¹ | 2157.02 M⁻¹ s⁻¹ | – | – |
| GRAWM-MVTAS | – | – | 0 M⁻¹ s⁻¹ | 27.918 M⁻¹ s⁻¹ |
| GIAMN-ILTAS | 0 M⁻¹ s⁻¹ | 990.764 M⁻¹ s⁻¹ | – | – |
| SGVNS-LFTTA | – | – | 323.705 M⁻¹ s⁻¹ | 0 M⁻¹ s⁻¹ |
| ELAWH-LTASG | – | – | 1981.53 M⁻¹ s⁻¹ | 1373.05 M⁻¹ s⁻¹ |
| GHLAS-QRTAS | 1870.4 M⁻¹ s⁻¹ | 0 M⁻¹ s⁻¹ | – | – |
| SGWLN-LRSTA | – | – | 1154.21 M⁻¹ s⁻¹ | 726.013 M⁻¹ s⁻¹ |
| TRMAL-LTASG | – | – | 3438.54 M⁻¹ s⁻¹ | 84.609 M⁻¹ s⁻¹ |
| DYARA-MTASG | – | – | 4082.43 M⁻¹ s⁻¹ | 3438.54 M⁻¹ s⁻¹ |
| PSPRY-LTASG | – | – | 12792.1 M⁻¹ s⁻¹ | 10866.7 M⁻¹ s⁻¹ |
| GVLMR-LNTAS | 0 M⁻¹ s⁻¹ | 0 M⁻¹ s⁻¹ | – | – |
| SGVFS-LKLTA | – | – | 654.784 M⁻¹ s⁻¹ | 551.253 M⁻¹ s⁻¹ |
| GGSGN-LVRVR | – | – | 142.481 M⁻¹ s⁻¹ | 0 M⁻¹ s⁻¹ |
| GQHMR-LITAS | 0 M⁻¹ s⁻¹ | 836.403 M⁻¹ s⁻¹ | – | – |
| CCAMG-LTASG | 2218.08 M⁻¹ s⁻¹ | 4470.66 M⁻¹ s⁻¹ | – | – |
| SLYRA-LTASG | 7386.83 M⁻¹ s⁻¹ | 5667.28 M⁻¹ s⁻¹ | – | – |
| SGAMN-LTLTA | 0 M⁻¹ s⁻¹ | 0 M⁻¹ s⁻¹ | – | – |
| ESPSF-LTASG | – | – | 12792.1 M⁻¹ s⁻¹ | 3741.87 M⁻¹ s⁻¹ |
| GYYGE-LLTAS | 990.764 M⁻¹ s⁻¹ | 27.918 M⁻¹ s⁻¹ | – | – |

| Substance | Kobs [1, 3] | Kobs [2, 4] | Kobs [1, 5] | Kobs [2, 6] |
| --- | --- | --- | --- | --- |
| SGPSR-ILMTA | – | – | 1071.29 M⁻¹ s⁻¹ | 1513.13 M⁻¹ s⁻¹ |
| GVMMQ-LVTAS | 0 M⁻¹ s⁻¹ | 0 M⁻¹ s⁻¹ | – | – |
| GQAWA-LGTAS | 484.315 M⁻¹ s⁻¹ | 355.093 M⁻¹ s⁻¹ | – | – |
| GSGLE-LRVNT | 0 M⁻¹ s⁻¹ | 231.616 M⁻¹ s⁻¹ | – | – |
| GQVRA-LRTAS | 12792.1 M⁻¹ s⁻¹ | 12792.1 M⁻¹ s⁻¹ | – | – |
| RVLSR-LTASG | 8941.32 M⁻¹ s⁻¹ | 0 M⁻¹ s⁻¹ | – | – |
| GWGDR-LTTAS | – | – | 1154.21 M⁻¹ s⁻¹ | 292.668 M⁻¹ s⁻¹ |
| IFINF-LTASG | 10866.7 M⁻¹ s⁻¹ | 323.705 M⁻¹ s⁻¹ | – | – |
| RGMQN-LTASG | 1610.61 M⁻¹ s⁻¹ | 690.17 M⁻¹ s⁻¹ | – | – |
| GTVWA-LTTAS | 292.668 M⁻¹ s⁻¹ | 2218.08 M⁻¹ s⁻¹ | – | – |
| PSPRA-ITASG | 12792.1 M⁻¹ s⁻¹ | 12792.1 M⁻¹ s⁻¹ | – | – |
| HWPRF-LTASG | – | – | 10866.7 M⁻¹ s⁻¹ | 10866.7 M⁻¹ s⁻¹ |
| GGSGA-LQVPT | 0 M⁻¹ s⁻¹ | 56.119 M⁻¹ s⁻¹ | – | – |
| SGPSN-MLRTA | 5889.62 M⁻¹ s⁻¹ | 3964.21 M⁻¹ s⁻¹ | – | – |
| SGPMS-LRMTA | 7386.83 M⁻¹ s⁻¹ | 12792.1 M⁻¹ s⁻¹ | – | – |
| KSPRM-LTASG | – | – | 12792.1 M⁻¹ s⁻¹ | 12792.1 M⁻¹ s⁻¹ |
| SGVAS-LMGTA | – | – | 12792.1 M⁻¹ s⁻¹ | 8941.32 M⁻¹ s⁻¹ |
| SGAVA-LRLTA | 1981.53 M⁻¹ s⁻¹ | 3438.54 M⁻¹ s⁻¹ | – | – |
| SGAGR-LRATA | – | – | 142.481 M⁻¹ s⁻¹ | 517.582 M⁻¹ s⁻¹ |
| GRPHP-LSTAS | 12792.1 M⁻¹ s⁻¹ | 8941.32 M⁻¹ s⁻¹ | – | – |
| RDLWK-LTASG | 0 M⁻¹ s⁻¹ | 56.119 M⁻¹ s⁻¹ | – | – |
| SGPHW-LNATA | 3741.87 M⁻¹ s⁻¹ | 10866.7 M⁻¹ s⁻¹ | – | – |
| HLVAW-LTASG | 10866.7 M⁻¹ s⁻¹ | 10866.7 M⁻¹ s⁻¹ | – | – |
| VWGRA-LTASG | 7386.83 M⁻¹ s⁻¹ | 8321.48 M⁻¹ s⁻¹ | – | – |
| VIVAA-LTASG | 12792.1 M⁻¹ s⁻¹ | 10866.7 M⁻¹ s⁻¹ | – | – |
| SGVRM-LRRTA | 799.117 M⁻¹ s⁻¹ | 2157.02 M⁻¹ s⁻¹ | – | – |

| Substance | Kobs [1, 3] | Kobs [2, 4] | Kobs [1, 5] | Kobs [2, 6] |
| --- | --- | --- | --- | --- |
| GSGFA-LVAKT | – | – | 0 M⁻¹ s⁻¹ | 323.705 M⁻¹ s⁻¹ |
| GTLAQ-ISTAS | – | – | 0 M⁻¹ s⁻¹ | 517.582 M⁻¹ s⁻¹ |
| GVPLN-VKTAS | 5090.5 M⁻¹ s⁻¹ | 12792.1 M⁻¹ s⁻¹ | – | – |
| SGPAG-MHSTA | 12792.1 M⁻¹ s⁻¹ | 7015.91 M⁻¹ s⁻¹ | – | – |
| VQLRS-LTASG | 12792.1 M⁻¹ s⁻¹ | 7015.91 M⁻¹ s⁻¹ | – | – |
| GQPNF-LTASG | – | – | 2157.02 M⁻¹ s⁻¹ | 1283.43 M⁻¹ s⁻¹ |
| SGPLT-LNSTA | 2476.66 M⁻¹ s⁻¹ | 10866.7 M⁻¹ s⁻¹ | – | – |
| TPVGW-MTASG | 12792.1 M⁻¹ s⁻¹ | 5269.78 M⁻¹ s⁻¹ | – | – |
| GRVAH-LRTAS | 12792.1 M⁻¹ s⁻¹ | 1112.44 M⁻¹ s⁻¹ | – | – |
| VHVHA-LTASG | 5461.43 M⁻¹ s⁻¹ | 2476.66 M⁻¹ s⁻¹ | – | – |
| GRASR-LVTAS | – | – | 551.253 M⁻¹ s⁻¹ | 0 M⁻¹ s⁻¹ |
| GGSGS-LNQRL | – | – | 585.336 M⁻¹ s⁻¹ | 0 M⁻¹ s⁻¹ |
| DRIRH-LTASG | 6688.74 M⁻¹ s⁻¹ | 3964.21 M⁻¹ s⁻¹ | – | – |
| GSPVW-LRTAS | 12792.1 M⁻¹ s⁻¹ | 9740.44 M⁻¹ s⁻¹ | – | – |
| RHLAK-LTASG | 9740.44 M⁻¹ s⁻¹ | 0 M⁻¹ s⁻¹ | – | – |
| SGARG-IKLTA | – | – | 0 M⁻¹ s⁻¹ | 0 M⁻¹ s⁻¹ |
| VVAVS-LTASG | 12792.1 M⁻¹ s⁻¹ | 9740.44 M⁻¹ s⁻¹ | – | – |
| GRPMN-LRTAS | 10866.7 M⁻¹ s⁻¹ | 12792.1 M⁻¹ s⁻¹ | – | – |
| GVPFM-ILTAS | – | – | 484.315 M⁻¹ s⁻¹ | 4922.1 M⁻¹ s⁻¹ |
| GKASN-LYTAS | 3165.09 M⁻¹ s⁻¹ | 1030.73 M⁻¹ s⁻¹ | – | – |
| GGSGR-LRLAI | – | – | 0 M⁻¹ s⁻¹ | 0 M⁻¹ s⁻¹ |
| SGALH-LRETA | 201.585 M⁻¹ s⁻¹ | 201.585 M⁻¹ s⁻¹ | – | – |
| GPVMR-MSTAS | 0 M⁻¹ s⁻¹ | 0 M⁻¹ s⁻¹ | – | – |
| GQPVP-MLTAS | 7386.83 M⁻¹ s⁻¹ | 6131.32 M⁻¹ s⁻¹ | – | – |
| SGVNS-LRRTA | 726.013 M⁻¹ s⁻¹ | 0 M⁻¹ s⁻¹ | – | – |
